Test results as given in patent publication US20240368145A1, “METHODS FOR TREATING CANCER” (IMMUNIC AG, priority 2021, published 2024).

What was measured:
[1] = test system: prostate cancer cell line 22RV1, DU145, LNCAP, PC3 and VCaP; assay: Oncolead profiling in a panel of 5 prostate cancer cell lines (summary); format: cell-based; conditions: for inhibition at 30 µM: highest concentration (30 μM), VCaP cell line not included, read-out: average growth inhibition; for growth inhibition: in 4 of 5 prostate cancer cell lines
Method: (§1) Cell growth was assessed by measuring protein content using sulforhodamin B. Growth inhibition was calculated by (TCMD−T0)/TNCT72h−T0)*100% with TCMD is the tumor growth at 72 h with the respective compound concentration. To is the protein content of the cell line before treatment and TNCT72h is the tumor growth of the DMSO control.

AR-FL protein = assay: Androgen receptor protein expression (western blot) in 22Rv1: AR-FL; format: cell-based, human; conditions: 22Rv1, 6 μM, 48 h; for AR-FL protein level: western blot quantification
Method: (§2) After 48 h, cell were lysed using cell extraction buffer (Life Technologies #FNN0011) for western blot. […] The membrane is then incubation for 1 hour in blocking buffer (5% milk in 20 mM Tris, 150 mM NaCl, pH 7.5, 0.05% Tween 20 [TBS-T]). After this incubation, the primary antibody is added and incubated overnight at 4° C. After washing, the membrane was incubated with the secondary antibody for 1 h. Visualization of the bands was performed using the femto maximum sensitivity substrate reagent and the luminescence signal recorded with the Fusion FX7 (Vilber). For protein quantification, InageJ was used.

[2] = test system: prostate cancer cell line VCaP; assay: Oncolead sulforhodamin B growth inhibition, VCaP; format: cell-based; conditions: for GI50: Homo sapiens, VCaP, sulforhodamin B assay, 72 and 120 h treatment, read-out: GI50 range VCAP; for effect on growth of VCaP: highest dose (30 μM)
Method: as §1

IL-17A = assay: Cytokine assay, human PBMC stimulated with PHA: IL-17A; format: cell-based; conditions: PHA-activated, 48 hours, read-out: IL-17A inhibition (IC50 range)
Method: (§3) Peripheral blood mononuclear cells (PBMC) from healthy human donors were purified using Accuspin™ System-Histopaque-1077 (Sigma) according to the protocol recommended by the manufacturer. Purified PBMC were then washed twice with phosphate-buffered saline (PBS) and resuspended in RPMI1640 culture medium supplemented with 10% dialyzed heat inactivated fetal calf serum, 1.5 mM L-glutamine, 100 U penicillin/mL and […] streptomycin/mL (all from PAN Biotech, Aidenbach, Germany). For stimulation, PBMC were seeded at 1×10^5 cells/well, activated with 2 gg/mL phytohaemagglutinin (PHA, Sigma) and incubated with the test compounds for 48 hours. IL-17A, IL-17F and INFγ were then determined in the culture supernatant using a Luminex BioPlex system, following the manufacturer's instructions (BioRad, Munich, Germany). To determine the IC50, compounds were titrated semilogarithmically.
(§4) Cytokines were determined in the aforementioned culture supernatant using the following methods: IL-17A was measured using the human homodimer IL-17A ELISA Ready Set Go Kit from cBioscience (Frankfurt, Germany); IL-17F using the human IL-17F ELI-Pair from Holzel Diagnostica GmbH (K51n, Germany); and IFNγ using the OptEIA human IFN-g ELISA from BD Bioscience (Heidelberg, Germany), all following the manufacturer's instructions.

[3] = test system: more than 75 representative cancer cell lines; assay: Oncolead profiling in a panel of more than 75 cancer cell lines; format: cell-based; conditions: FIG. 1 and FIG. 2
Method: The compound of Example 1 and Example 1/1 was tested in vitro in more than 75 representative cancer cell lines at Oncolead (www.oncolead.com) according their standard procedure. The obtained data is summarised in FIG. 1 (Example 1) and FIG. 2 (Example 1/1).

IL-17F = assay: Cytokine assay, human PBMC stimulated with PHA: IL-17F; format: cell-based; conditions: PHA-activated, 48 hours, read-out: IL-17F inhibition (IC50 range)
Method: as §3, §4

[4] = Viability and differentiation in different solid cancer cell lines; format: cell-based; conditions: range over HEK293, A2780, MT3, MCF7, NCIH460, A-375, HCT15, HT1080
AML cell line THP-1 = assay: CellTiter-Blue proliferation assay, THP-1; format: cell-based; conditions: Homo sapiens, geometric mean relative IC50, 72 hours, read-out: IC50 range for cell line THP-1
Method: (§5) Aim of this study was to evaluate compounds of Example 1, 1/1, 2/2, 2/5 and 2/6 in a proliferation assays. The 5 test compounds were tested in a CellTiter-Blue® based proliferation assay in three AML cell lines (HL-60, THP-1 and MOLM-13). The compounds were tested at 10 concentrations in half-log increments (highest concentration 30 μM or 100 μM) in duplicates. The incubation period with the applied compounds was fixed to 72 hours.

RORγt = biological target: T1, RORγt (Homo sapiens, UniProt P51449); assay: RORγt inhibition, Indigo Biosciences Human RAR-related Orphan Receptor, Gamma Reporter Assay System; format: cell-based; conditions: luciferase reporter cells, 22-24 h incubation; read-out: IC50 range, RORγt assay
T1 sequence (P51449 269-518 limits assumed): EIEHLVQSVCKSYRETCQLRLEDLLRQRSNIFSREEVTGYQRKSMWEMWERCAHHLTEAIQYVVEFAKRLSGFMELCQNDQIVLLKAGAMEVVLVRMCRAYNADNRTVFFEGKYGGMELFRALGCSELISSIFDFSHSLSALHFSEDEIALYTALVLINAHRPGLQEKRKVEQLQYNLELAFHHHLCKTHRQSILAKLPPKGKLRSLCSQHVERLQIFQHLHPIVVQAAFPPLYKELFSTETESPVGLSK
Method: The in vitro inhibition of RORγt was measured using Indigo Biosciences Human RAR-related Orphan Receptor, Gamma Reporter Assay System (Product #11304001-32) as described in the technical manual. In brief, 200 μL of Reporter Cells is dispensed into wells of the assay plate and preincubated for 4-6 h. Following the pre-incubation period, culture media are discarded and 200 μL/well of the prepared 1×-concentration treatment media are added. Following 22-24 h incubation, treatment media are discarded and Luciferase Detection Reagent is added. The intensity of light emission (in units of ‘Relative Light Units’; RLU) from each assay well is quantified using a plate-reading luminometer. Average values of RLU were determined for each treatment concentration. Non-linear regression analyses were performed and IC50 values determined using GraphPad Prism software. Provided inverse-agonists ursolic acid served as positive control.

AR-V7 protein = assay: Androgen receptor protein expression (western blot) in 22Rv1: AR-V7; format: cell-based, human; conditions: 22Rv1, 6 μM, 48 h; for AR-V7 protein level: western blot quantification
Method: as §2

AML cell line HL-60 = assay: CellTiter-Blue proliferation assay, HL-60; format: cell-based; conditions: Homo sapiens, geometric mean relative IC50, 72 hours, read-out: IC50 range for cell line HL-60
Method: as §5

[5] = test system: prostate cancer cell line 22RV1; assay: Oncolead sulforhodamin B growth inhibition, 22RV1; format: cell-based; conditions: Homo sapiens, sulforhodamin B assay, 72 and 120 h treatment, read-out: GI50 range 22RV1
Method: as §1

AML cell line MOLM-13 = assay: CellTiter-Blue proliferation assay, MOLM-13; format: cell-based; conditions: Homo sapiens, geometric mean relative IC50, 72 hours, read-out: IC50 range for cell line MOLM-13
Method: as §5

Row | GI50 [2] | IC50 (IL-17A) | IC50 (IL-17F) | IC50 [4] | IC50 (AML cell line THP-1) | IC50 (RORγt) | IC50 (AML cell line HL-60) | GI50 [5] | IC50 (AML cell line MOLM-13) | SMILES | inhibition at 30 µM [1] | growth inhibition [1] | AR-FL protein levels (AR-FL protein) | AR-FL protein level (AR-FL protein) | effect on growth of VCaP [2] | in vitro anticancer activity (Z-score panel, words) [3] | AR-V7 protein levels (AR-V7 protein) | AR-V7 protein level (AR-V7 protein)
1 | ≥ 5 µM | < 0.025 µM | < 0.025 µM | 0.001 to 0.025 µM | 0.01 to 0.1 µM | < 0.01 µM | < 0.01 µM | < 0.025 µM | < 0.01 µM | COC(=O)c1c(-c2c(F)cccc2Cl)noc1-c1cnn(-c2cccc(Cl)c2)c1C(F)(F)F [Example 1, Methyl 3-(2-chloro-6-fluorophenyl)-5-(1-(3-chlorophenyl)-5-(trifluoromethyl)-1H-pyrazol-4-yl)isoxazole-4-carboxylate] | 80% | strong growth inhibition | strong reduction | 0.474 | No effect | exhibits an in vitro anticancer activity towards a broad spectrum of therapeutic cancer indication | strong reduction | 0.368
2 | ≥ 5 µM | < 0.025 µM | < 0.025 µM | 0.001 to 0.025 µM | < 0.01 µM | < 0.01 µM | < 0.01 µM | < 0.025 µM | < 0.01 µM | Fc1cccc(Cl)c1-c1noc(-c2cnn(-c3cccc(Cl)c3)c2C(F)(F)F)c1-c1nccs1 [Example 1/1] | 80% | strong growth inhibition | strong reduction | 0.482 | No effect | exhibits an in vitro anticancer activity towards a broad spectrum of therapeutic cancer indication | strong reduction | 0.323
3 | ≥ 5 µM | < 0.025 µM | < 0.025 µM | – | – | 0.01 to 0.1 µM | – | < 0.025 µM | – | CC(C)(O)CCn1ncc(-c2onc(-c3c(F)cccc3Cl)c2-c2ncccn2)c1C(F)(F)F [2/8] | 80% | strong growth inhibition | strong reduction | 0.421 | No effect | – | strong reduction | 0.309
